In patent US20190374508A1, “THERAPEUTIC TOPICAL COMPOSITIONS OF APREMILAST” (SARUDBHAVA FORMULATIONS PRIVATE LIMITED, priority 2017, published 2019):

Test system: TPA induced ear inflammation
Assay: 12-O-Tetradecanoylphorbol-13-Acetate (TPA) induced ear inflammation in mice
Assay type: in vivo, Male C57BL/6 mice
Settings: for dose dependence of efficacy: topical test formulation
Experimental: Efficacy of the test formulations was determined in studies using 12-O-Tetradecanoylphorbol-13-Acetate (TPA) induced ear inflammation in mice. Excessive proliferation of keratinocytes is a characteristic of psoriasis, and this cell type is a well reported target of therapy for this disease. In the present study, chronic skin inflammation was induced by repeated topical application of TPA, which is recognized by prolonged skin reaction & epidermal hyperplasia. The animal model used was Male C57BL/6 mice 6 to 8 weeks of age. Protocol: • a) Animals were randomized based on body weight and divided into six different groups consisting of 8 animals. • b) 20 μL of TPA solution containing 2 μg of TPA in vehicle (2% DMSO and 98% methanol) was applied topically on both ventral and dorsal side (10 μL each side) of the right ear of all the animals except group Group G1 on day 0, 2, 4, 7 and 9. • c) Group G1 and Group G2 were topically treated with placebo gel formulation on right ear. • d) Groups G3, G4 and G5 were topically treated with test compositions comprising apremilast (2% w/w, 4% w/w and 10% w/w concentration). • e) Group G6 was topically treated with 0.1% Betamethasone valerate cream. • f) All the formulations were uniformly applied, 25 mg each (50 mg per animal), in anterior and posterior region of the right ear daily from day 0 to day 10.

CCOc1cc([C@@H](CS(C)(=O)=O)N2C(=O)c3cccc(NC(C)=O)c3C2=O)ccc1OC [apremilast, N-[2-[(1S)-1-(3-ethoxy-4-methoxyphenyl)-2-(methylsulfonyl)ethyl]-2,3-dihydro-1,3-dioxo-1H-isoin-dol-4-yl]acetamide]
efficacy against ear inflammation (daily topical application of test formulation on right ear, day 0 to day 10, tested concentrations 2%, 4% and 10% apremilast): effective against ear inflammation
reduction on ear edema (topical test formulation containing 2% apremilast): poor reduction on ear edema which tapered off by day-9
dose dependence of efficacy (10% concentration of apremilast): saturation of efficacy
dose dependence of efficacy (between 2% and 4% apremilast): Dose-dependent increase in efficacy
